Results published in PubChem BioAssay (NCI).
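Step 1: Grow cells in 96-well plates. Step 2: Expose to compound for 48 hours at 5 concentrations. Step 3: Interpolate endpoints linearly; if unreached, use highest concentration. TGI marks complete inhibition of growth.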

Experiments:
Assay in all cases: inhibition of tumour cell growth, NCI panel, 48 h
CCRF-CEM leukemia = tested on: CCRF-CEM leukemia
KM12 colon = tested on: KM12 colon
A498 renal = tested on: A498 renal
CAKI-1 renal = tested on: CAKI-1 renal
ACHN renal = tested on: ACHN renal
SW-620 colon = tested on: SW-620 colon
OVCAR-5 ovarian = tested on: OVCAR-5 ovarian
786-0 renal = tested on: 786-0 renal
SK-OV-3 ovarian = tested on: SK-OV-3 ovarian
HOP-92 NSCLC = tested on: HOP-92 NSCLC
MDA-N = tested on: MDA-N
UACC-62 melanoma = tested on: UACC-62 melanoma
OVCAR-3 ovarian = tested on: OVCAR-3 ovarian
NCI/ADR-RES ovarian = tested on: NCI/ADR-RES ovarian
MALME-3M melanoma = tested on: MALME-3M melanoma
K-562 leukemia = tested on: K-562 leukemia
TK-10 renal = tested on: TK-10 renal
IGROV1 ovarian = tested on: IGROV1 ovarian
U251 CNS = tested on: U251 CNS
PC-3 prostate = tested on: PC-3 prostate
NCI-H23 lung = tested on: NCI-H23 lung
HCT-15 colon = tested on: HCT-15 colon
HS 578T breast = tested on: HS 578T breast
SN12C renal = tested on: SN12C renal
OVCAR-4 ovarian = tested on: OVCAR-4 ovarian
HL-60(TB) leukemia = tested on: HL-60(TB) leukemia
RPMI-8226 leukemia = tested on: RPMI-8226 leukemia
UACC-257 melanoma = tested on: UACC-257 melanoma
HCC-2998 colon = tested on: HCC-2998 colon
MDA-MB-435 = tested on: MDA-MB-435
RXF 393 renal = tested on: RXF 393 renal
SF-539 CNS = tested on: SF-539 CNS
MOLT-4 leukemia = tested on: MOLT-4 leukemia
COLO 205 colon = tested on: COLO 205 colon
SNB-75 CNS = tested on: SNB-75 CNS
HT29 colon = tested on: HT29 colon
HCT-116 colon = tested on: HCT-116 colon
SK-MEL-28 melanoma = tested on: SK-MEL-28 melanoma
M14 melanoma = tested on: M14 melanoma
EKVX NSCLC = tested on: EKVX NSCLC
NCI-H522 lung = tested on: NCI-H522 lung
LOX IMVI melanoma = tested on: LOX IMVI melanoma
MCF7 breast = tested on: MCF7 breast
A549 NSCLC = tested on: A549 NSCLC
BT-549 breast = tested on: BT-549 breast
SK-MEL-2 melanoma = tested on: SK-MEL-2 melanoma
SK-MEL-5 melanoma = tested on: SK-MEL-5 melanoma
MDA-MB-231 breast = tested on: MDA-MB-231 breast
SF-295 CNS = tested on: SF-295 CNS
DU-145 prostate = tested on: DU-145 prostate
HOP-62 NSCLC = tested on: HOP-62 NSCLC
SNB-19 CNS = tested on: SNB-19 CNS
SR leukemia = tested on: SR leukemia
NCI-H226 lung = tested on: NCI-H226 lung
OVCAR-8 ovarian = tested on: OVCAR-8 ovarian
NCI-H460 lung = tested on: NCI-H460 lung
T-47D breast = tested on: T-47D breast
SF-268 CNS = tested on: SF-268 CNS

COc1ccc2c(c1)CCC(CN1CCN(CCOC(c3ccc(F)cc3)c3ccc(F)cc3)CC1)=C2
TGI (CCRF-CEM leukemia): > 100 µM
TGI (KM12 colon): > 100 µM
TGI (A498 renal): 48.1 µM
TGI (CAKI-1 renal): > 100 µM
TGI (ACHN renal): > 100 µM
TGI (SW-620 colon): > 100 µM
TGI (OVCAR-5 ovarian): 97.4 µM
TGI (786-0 renal): 27.2 µM
TGI (SK-OV-3 ovarian): > 100 µM
TGI (HOP-92 NSCLC): 42 µM
TGI (MDA-N): 47.2 µM
TGI (UACC-62 melanoma): 49 µM
TGI (OVCAR-3 ovarian): 50.6 µM
TGI (NCI/ADR-RES ovarian): 38.4 µM
TGI (MALME-3M melanoma): 27.9 µM
TGI (K-562 leukemia): > 100 µM
TGI (TK-10 renal): 44.4 µM
TGI (IGROV1 ovarian): > 100 µM
TGI (U251 CNS): 42.9 µM
TGI (PC-3 prostate): > 100 µM
TGI (NCI-H23 lung): 38.2 µM
TGI (HCT-15 colon): 57.8 µM
TGI (HS 578T breast): 50.7 µM
TGI (SN12C renal): 26.3 µM
TGI (OVCAR-4 ovarian): > 100 µM
TGI (HL-60(TB) leukemia): 30.3 µM
TGI (RPMI-8226 leukemia): 36.9 µM
TGI (UACC-257 melanoma): 28.1 µM
TGI (HCC-2998 colon): 19 µM
TGI (MDA-MB-435): 68.9 µM
TGI (RXF 393 renal): 26.8 µM
TGI (SF-539 CNS): 42.3 µM
TGI (MOLT-4 leukemia): 48.7 µM
TGI (COLO 205 colon): 10.4 µM
TGI (SNB-75 CNS): > 100 µM
TGI (HT29 colon): 32.4 µM
TGI (HCT-116 colon): 21.2 µM
TGI (SK-MEL-28 melanoma): 77.1 µM
TGI (M14 melanoma): 27.4 µM
TGI (EKVX NSCLC): 29.6 µM
TGI (NCI-H522 lung): 27.8 µM
TGI (LOX IMVI melanoma): 30.3 µM
TGI (MCF7 breast): 71.9 µM
TGI (A549 NSCLC): > 100 µM
TGI (BT-549 breast): 35.6 µM
TGI (SK-MEL-2 melanoma): 33.3 µM
TGI (SK-MEL-5 melanoma): 18.5 µM
TGI (MDA-MB-231 breast): 31.8 µM
TGI (SF-295 CNS): 87.2 µM
TGI (DU-145 prostate): 49.2 µM
TGI (HOP-62 NSCLC): > 100 µM
TGI (SNB-19 CNS): > 100 µM
TGI (SR leukemia): 27.7 µM
TGI (NCI-H226 lung): 30.6 µM
TGI (OVCAR-8 ovarian): 63.2 µM
TGI (NCI-H460 lung): 34.2 µM
TGI (T-47D breast): > 100 µM
TGI (SF-268 CNS): > 100 µM
